Legend:
KP4 = test: Cell viability assay (CellTiter Glo), pancreatic ductal adenocarcinoma KP4; type: cell-based, human; settings: Homo sapiens, KP-4, 96 h, pancreatic cancer cell line KP4, 96 hours, CellTiter Glo; read-out: IC50 μM KP4
Experimental: (§1) Cell viability assay was performed to assess the potency of the compounds in human cancer cell lines KP4 (pancreatic ductal adenocarcinoma), MiaPaCa-2 (pancreatic carcinoma), AsPC-1 (pancreatic adenocarcinoma, ascites), 143B (osteosarcoma), and SJSA-1 (osteosarcoma). Selected compounds were also assayed in a human breast epithelial cell line MCF-10A, a nontumorigenic cell line as a control to assess differential activity. Cells at a density of 500-5,000 cells/well were seeded in 96-well plates and incubated at 37° C. overnight. A series of 9 different concentrations of compound stocks (500×) were created by 3-fold serial dilution in DMSO. These compounds were further diluted in culture media and then added to cells so that the final DMSO concentration was equal to 0.25% or less. After 96 hours of incubation, 50 μL of CellTiter Glo reagent (Promega) was added to each well and luminescence was measured after 10 minutes using EnVision (PerkinElmer). Compounds titrated from top concentration of up to 30 μM. The select compounds were tested initially from 30 μM as the top concentration in duplicates (range of 4.6 nM-30 μM). […] Luminescence from cells treated with DMSO alone was set as Max and % of inhibition was calculated as follows: Inhibition %=(Max-Sample value)/Max*100. Data was analyzed using XL-fit software (ID Business Solutions Ltd.). IC50, relative IC50, or % of top inhibition was calculated.
as §1, with “in” for “in human”, “line” for “lines”, “adenocarcinoma).” for “adenocarcinoma), MiaPaCa-2 (pancreatic carcinoma), AsPC-1 (pancreatic adenocarcinoma, ascites), 143B (osteosarcoma), and SJSA-1 (osteosarcoma). Selected compounds were also assayed in a human breast epithelial cell line MCF-10A, a nontumorigenic cell line as a control to assess differential activity.”, “1,000-10,000” for “500-5,000”, “All” for “Compounds titrated from top concentration of up to 30 μM. The select”
(§2) The results of the assay on stability in blood and IC50 values for pancreatic cancer cell line KP4 are given below in Table 24.

[1] = Whole blood stability, mouse; type: in vitro ADME
Excerpt: as §2

[2] = Whole blood stability, human; type: in vitro ADME
Excerpt: as §2

Compound | IC50 (KP4) [µM] | Whole Blood Stability % Remaining at 37° C. Mouse ([1]; 0 min) [%] | Whole Blood Stability % Remaining at 37° C. Mouse ([1]; 30 min) [%] | Whole Blood Stability % Remaining at 37° C. Mouse ([1]; 60 min) [%] | Whole Blood Stability % Remaining at 37° C. Human ([2]; 0 min) [%] | Whole Blood Stability % Remaining at 37° C. Human ([2]; 30 min) [%] | Whole Blood Stability % Remaining at 37° C. Human ([2]; 60 min) [%]
COC(=O)c1ccc([C@H]2c3[nH]c4cccc(Br)c4c3C[C@H](C(=O)OC)N2C(=O)CCl)cc1 [Compound 95] | 0.01 to 0.1 | 100.0 | 1.5 | 0.0 | 100.0 | 109.5 | 85.6
COC(=O)[C@H]1Cc2c([nH]c3ccccc23)[C@H](c2ccc(C(=O)NC(C)(C)C)cc2)N1C(=O)CCl [Compound 9] | < 0.01 | 100.0 | 61.9 | 40.6 | 100.0 | 53.8 | 47.0
COC(=O)[C@H]1Cc2c([nH]c3ccccc23)[C@H](c2ccc(S(=O)(=O)N[C@]34C[C@H]5C[C@H](C[C@H](C5)C3)C4)cc2)N1C(=O)CCl [Compound 24] | < 0.01 | 100.0 | 62.0 | 37.0 | 100.0 | 61.7 | 50.2
C[C@H]1Cc2c([nH]c3ccccc23)[C@H](c2ccc(C3CCCCC3)cc2)N1C(=O)CCl [Compound 110] | < 0.01 | 100.0 | 127.4 | 111.0 | 100.0 | 68.3 | 51.7
COC(=O)[C@H]1Cc2c([nH]c3ccccc23)[C@H](c2ccc(C(=O)N[C@]34CC5C[C@H](C[C@H](C5)C3)C4)cc2)N1C(=O)CCl [Compound 28, Methyl-(1S,3R)-1-(4-(((3R,5R,7R)-adamantan-1-yl)carbamoyl)phenyl)-2-(2-chloroacetyl)-2,3,4,9-tetrahydro-1H-pyrido[3,4-b]indole-3-carboxylate] | < 0.01 | 100.0 | 78.3 | 68.9 | 100.0 | 73.4 | 51.6
C[C@H]1Cc2c([nH]c3ccccc23)[C@H](c2ccc(C3CCCC3)cc2)N1C(=O)CCl [Compound 109] | < 0.01 | 100.0 | 79.2 | 87.7 | 100.0 | 96.1 | 68.1
COC(=O)[C@H]1Cc2c([nH]c3ccccc23)[C@H](c2ccc(C(=O)OCC3CCC3)cc2)N1C(=O)CCl [Compound 85] | < 0.01 | 100.0 | 0.0 | 0.0 | 100.0 | 73.5 | 54.4
COC(=O)c1ccc([C@H]2c3[nH]c4ccccc4c3C[C@H](C)N2C(=O)CCl)cc1 [Compound 77] | < 0.01 | 100.0 | 0.5 | 0.0 | 100.0 | 54.1 | 27.5
C#CCOC(=O)c1ccc([C@@H]2c3[nH]c4ccccc4c3C[C@H](C(=O)OC)N2C(=O)CCl)cc1 [BXa] | 0.01 to 0.1 | 100.0 | 0.0 | 0.0 | 100.0 | 95.7 | 46.8
COC(=O)C1CCC([C@H]2c3[nH]c4ccccc4c3C[C@H](C(=O)N(C)C)N2C(=O)CCl)CC1 (stereo partly shown) [Compound 41] | 0.01 to 0.1 | 100.0 | 0.0 | 0.0 | 100.0 | 82.4 | 100.0
COC(=O)[C@H]1Cc2c([nH]c3ccccc23)[C@H](c2ccc(C(=O)NCCN)cc2)N1C(=O)CCl [Compound 15] | 0.1 to 0.5 | 100.0 | 83.0 | 50.2 | 100.0 | 72.7 | 66.8
COC(=O)c1ccc([C@@H]2c3sc4ccccc4c3C[C@H](C(=O)OC)N2C(=O)CCl)cc1 [Example 55d] | 0.1 to 0.5 | 100.0 | 0.0 | 0.0 | 100.0 | 60.8 | 41.2
COC(=O)[C@H]1Cc2c([nH]c3ccccc23)[C@H](c2ccc(C(=O)N3CCNCC3)cc2)N1C(=O)CCl [Compound 31] | 0.1 to 0.5 | 100.0 | 90.0 | 75.5 | 100.0 | 49.4 | 32.6
